In PubChem BioAssay (NCI):
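The compound was tested at five concentrations on cells cultured in 96-well plates, with a 48-hour exposure period. The concentration for 50% growth inhibition is given as GI50. TGI is the concentration that stops growth completely.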

Experiments:
Test in all cases: DTP human tumour cell line panel, 48 h
UO-31 renal = system: UO-31 renal
OVCAR-4 ovarian = system: OVCAR-4 ovarian
MDA-MB-231 breast = system: MDA-MB-231 breast
CCRF-CEM leukemia = system: CCRF-CEM leukemia
A549 NSCLC = system: A549 NSCLC
SF-268 CNS = system: SF-268 CNS
SNB-75 CNS = system: SNB-75 CNS
MOLT-4 leukemia = system: MOLT-4 leukemia
MALME-3M melanoma = system: MALME-3M melanoma
SW-620 colon = system: SW-620 colon
SF-295 CNS = system: SF-295 CNS
OVCAR-8 ovarian = system: OVCAR-8 ovarian
MCF7 breast = system: MCF7 breast
M14 melanoma = system: M14 melanoma
HT29 colon = system: HT29 colon
SNB-19 CNS = system: SNB-19 CNS
HCC-2998 colon = system: HCC-2998 colon
RXF 393 renal = system: RXF 393 renal
HCT-15 colon = system: HCT-15 colon
U251 CNS = system: U251 CNS
SK-MEL-5 melanoma = system: SK-MEL-5 melanoma
MDA-MB-435 = system: MDA-MB-435
SN12C renal = system: SN12C renal
SK-MEL-28 melanoma = system: SK-MEL-28 melanoma
OVCAR-3 ovarian = system: OVCAR-3 ovarian
SF-539 CNS = system: SF-539 CNS
HS 578T breast = system: HS 578T breast
NCI-H460 lung = system: NCI-H460 lung
IGROV1 ovarian = system: IGROV1 ovarian
CAKI-1 renal = system: CAKI-1 renal
NCI-H226 lung = system: NCI-H226 lung
SK-MEL-2 melanoma = system: SK-MEL-2 melanoma
ACHN renal = system: ACHN renal
HCT-116 colon = system: HCT-116 colon
NCI-H522 lung = system: NCI-H522 lung
OVCAR-5 ovarian = system: OVCAR-5 ovarian
TK-10 renal = system: TK-10 renal
786-0 renal = system: 786-0 renal
LOX IMVI melanoma = system: LOX IMVI melanoma
SR leukemia = system: SR leukemia
HOP-62 NSCLC = system: HOP-62 NSCLC
PC-3 prostate = system: PC-3 prostate
EKVX NSCLC = system: EKVX NSCLC
K-562 leukemia = system: K-562 leukemia
UACC-257 melanoma = system: UACC-257 melanoma
NCI/ADR-RES ovarian = system: NCI/ADR-RES ovarian
NCI-H23 lung = system: NCI-H23 lung
BT-549 breast = system: BT-549 breast
T-47D breast = system: T-47D breast
KM12 colon = system: KM12 colon
UACC-62 melanoma = system: UACC-62 melanoma
RPMI-8226 leukemia = system: RPMI-8226 leukemia
HL-60(TB) leukemia = system: HL-60(TB) leukemia
SK-OV-3 ovarian = system: SK-OV-3 ovarian
DU-145 prostate = system: DU-145 prostate
HOP-92 NSCLC = system: HOP-92 NSCLC
COLO 205 colon = system: COLO 205 colon

## CC[n+]1[b-](C(C)(C)C)n(/N=C(\C)C(C)(C)C)[b-](C(C)(C)C)[n+]1CC
UO-31 renal
  TGI: > 100 µM
OVCAR-4 ovarian
  TGI: > 100 µM
MDA-MB-231 breast
  TGI: > 100 µM
CCRF-CEM leukemia
  TGI: > 100 µM
A549 NSCLC
  TGI: > 100 µM
SF-268 CNS
  TGI: > 100 µM
SNB-75 CNS
  TGI: > 100 µM
MOLT-4 leukemia
  TGI: > 100 µM
MALME-3M melanoma
  TGI: > 100 µM
SW-620 colon
  TGI: > 100 µM
SF-295 CNS
  TGI: > 100 µM
OVCAR-8 ovarian
  TGI: > 100 µM
MCF7 breast
  TGI: > 100 µM
M14 melanoma
  TGI: > 100 µM
HT29 colon
  TGI: > 100 µM
SNB-19 CNS
  TGI: > 100 µM
HCC-2998 colon
  TGI: > 100 µM
RXF 393 renal
  TGI: > 100 µM
HCT-15 colon
  TGI: > 100 µM
U251 CNS
  TGI: > 100 µM
SK-MEL-5 melanoma
  TGI: > 100 µM
MDA-MB-435
  TGI: > 100 µM
SN12C renal
  TGI: > 100 µM
SK-MEL-28 melanoma
  TGI: > 100 µM
OVCAR-3 ovarian
  TGI: > 100 µM
SF-539 CNS
  TGI: > 100 µM
HS 578T breast
  TGI: > 100 µM
NCI-H460 lung
  TGI: > 100 µM
IGROV1 ovarian
  TGI: > 100 µM
CAKI-1 renal
  TGI: > 100 µM
NCI-H226 lung
  TGI: > 100 µM
SK-MEL-2 melanoma
  TGI: > 100 µM
ACHN renal
  TGI: > 100 µM
HCT-116 colon
  TGI: > 100 µM
NCI-H522 lung
  TGI: > 100 µM
OVCAR-5 ovarian
  TGI: > 100 µM
TK-10 renal
  TGI: > 100 µM
786-0 renal
  TGI: > 100 µM
LOX IMVI melanoma
  TGI: > 100 µM
SR leukemia
  TGI: 56.8 µM
HOP-62 NSCLC
  TGI: > 100 µM
PC-3 prostate
  TGI: > 100 µM
EKVX NSCLC
  TGI: > 100 µM
K-562 leukemia
  TGI: > 100 µM
UACC-257 melanoma
  TGI: > 100 µM
NCI/ADR-RES ovarian
  TGI: > 100 µM
NCI-H23 lung
  TGI: > 100 µM
BT-549 breast
  TGI: > 100 µM
T-47D breast
  TGI: > 100 µM
KM12 colon
  TGI: > 100 µM
UACC-62 melanoma
  TGI: > 100 µM

## CCOC(=O)c1cc(C(=O)c2cc(OC)cc(OC)c2)n2ncccc12
UO-31 renal
  GI50: 5.68 µM
  TGI: > 100 µM
RPMI-8226 leukemia
  GI50: 1.82 µM
  TGI: > 100 µM
HL-60(TB) leukemia
  GI50: 1.38 µM
  TGI: 4.66 µM
OVCAR-4 ovarian
  GI50: 17 µM
  TGI: > 100 µM
MDA-MB-231 breast
  GI50: 8.18 µM
  TGI: > 100 µM
CCRF-CEM leukemia
  GI50: 2.51 µM
  TGI: > 100 µM
A549 NSCLC
  GI50: 11.1 µM
  TGI: > 100 µM
SK-OV-3 ovarian
  GI50: 4.9 µM
  TGI: > 100 µM
SF-268 CNS
  GI50: 26.5 µM
  TGI: > 100 µM
SNB-75 CNS
  GI50: 0.399 µM
  TGI: > 100 µM
MOLT-4 leukemia
  GI50: 2.63 µM
  TGI: > 100 µM
MALME-3M melanoma
  GI50: > 100 µM
  TGI: > 100 µM
SW-620 colon
  GI50: 0.518 µM
  TGI: > 100 µM
SF-295 CNS
  GI50: 2.1 µM
  TGI: > 100 µM
DU-145 prostate
  GI50: 3.96 µM
  TGI: > 100 µM
OVCAR-8 ovarian
  GI50: 3.77 µM
  TGI: > 100 µM
MCF7 breast
  GI50: 1.31 µM
  TGI: > 100 µM
M14 melanoma
  GI50: 0.394 µM
  TGI: > 100 µM
HT29 colon
  GI50: 0.403 µM
  TGI: > 100 µM
SNB-19 CNS
  GI50: 4.28 µM
  TGI: > 100 µM
HCC-2998 colon
  GI50: 14.7 µM
  TGI: > 100 µM
RXF 393 renal
  GI50: 1.64 µM
  TGI: 14.2 µM
HCT-15 colon
  GI50: 0.587 µM
  TGI: > 100 µM
U251 CNS
  GI50: 2 µM
  TGI: > 100 µM
SK-MEL-5 melanoma
  GI50: 0.508 µM
  TGI: > 100 µM
SN12C renal
  GI50: 4.16 µM
  TGI: > 100 µM
HOP-92 NSCLC
  GI50: 24.9 µM
  TGI: > 100 µM
SK-MEL-28 melanoma
  GI50: 7.36 µM
  TGI: > 100 µM
OVCAR-3 ovarian
  GI50: 0.402 µM
  TGI: > 100 µM
SF-539 CNS
  GI50: 1.85 µM
  TGI: 40.2 µM
HS 578T breast
  GI50: 1.99 µM
  TGI: > 100 µM
NCI-H460 lung
  GI50: 2.58 µM
  TGI: > 100 µM
IGROV1 ovarian
  GI50: 7.12 µM
  TGI: > 100 µM
CAKI-1 renal
  GI50: 2.97 µM
  TGI: > 100 µM
NCI-H226 lung
  GI50: > 100 µM
  TGI: > 100 µM
SK-MEL-2 melanoma
  GI50: 0.738 µM
  TGI: > 100 µM
ACHN renal
  GI50: 12.2 µM
  TGI: > 100 µM
COLO 205 colon
  GI50: 0.797 µM
  TGI: 75.5 µM
OVCAR-5 ovarian
  GI50: 43.5 µM
  TGI: > 100 µM
TK-10 renal
  GI50: 9.78 µM
  TGI: > 100 µM
786-0 renal
  GI50: 11.4 µM
  TGI: > 100 µM
LOX IMVI melanoma
  GI50: 0.804 µM
  TGI: > 100 µM
SR leukemia
  GI50: 0.573 µM
  TGI: > 100 µM
HOP-62 NSCLC
  GI50: 10.2 µM
  TGI: > 100 µM
PC-3 prostate
  GI50: 7.45 µM
  TGI: > 100 µM
EKVX NSCLC
  GI50: 4.74 µM
  TGI: > 100 µM
K-562 leukemia
  GI50: 0.539 µM
  TGI: > 100 µM
UACC-257 melanoma
  GI50: 67.1 µM
  TGI: > 100 µM
NCI/ADR-RES ovarian
  GI50: 0.463 µM
  TGI: 61.1 µM
NCI-H23 lung
  GI50: 4.9 µM
  TGI: > 100 µM
BT-549 breast
  GI50: 1.22 µM
  TGI: > 100 µM
T-47D breast
  GI50: 17.2 µM
  TGI: > 100 µM
UACC-62 melanoma
  GI50: 0.523 µM
  TGI: > 100 µM
